Measurements from article PMC9501633, “Synthesis, Characterisation and Mechanism of Action of Anticancer 3-Fluoroazetidin-2-ones” (Pharmaceuticals, 2022).
Blank lines part the entries; values can stand above or below the molecule they belong to.

Assays:
[1] = tested on: MCF-7 human breast cancer cells; test: AlamarBlue cell viability assay; format: cell-based; details: for viability at 1 µM / viability at 10 µM / IC50: Homo sapiens, MCF7, 72 h; for viability at 1 µM: MCF-7, 1 μM; for viability at 1 µM / viability at 10 µM: read-out: viable cells remaining; for viability at 10 µM: MCF-7, 10 μM; for IC50: MCF-7, 72 h
Description: The antiproliferative potential of the synthesised 3-fluoro β-lactams 26–35 and 3,3-difluoro β-lactams 36–45 was evaluated in MCF-7 human breast cancer cells using the AlamarBlue assay, with CA-4 as reference compound (Figure 3). […] The results for the preliminary in vitro antiproliferative screen for 3-fluoro β-lactam compounds (26–29), which contain different substituents at the para position in the B ring, are presented in Figure 3A.
Cells were seeded at a density of 5 × 10^3 cells/well (MCF-7 and MDA-MB-231) and 1 × 10^4 cells/well (HEK-293T) in 96-well plates (200 μL per well). After 24 h, cells were then treated with medium alone, with vehicle (1% ethanol (v/v)) or with CA-4 or β-lactam compounds at 1 μM and 10 μM concentrations. […] Cell proliferation for MCF-7 cells was analysed with the AlamarBlue assay (Invitrogen Corp.) as previously described by us. After 72 h, AlamarBlue (10% (v/v)) was added to each well, and plates were incubated for 3–5 h at 37 °C in the dark. Fluorescence results were obtained with a 96-well fluorimeter with excitation at 530 nm and emission at 590 nm with results recorded as percentage viability relative to vehicle control (100%). Dose–response curves were obtained and IC50 values (concentration of drug resulting in 50% reduction in cell survival) were calculated using Prism (GraphPad Software, Inc., La Jolla, CA, USA).
Figure 3 Preliminary cell viability data for 3-fluoro and 3,3-difluoro β-lactam compounds. (A) 3-Fluoro β-lactam compounds containing different para-substituent ring B 26–29; 3-fluoro β-lactam compounds containing different meta-substituent ring B 30, 32–35; (B) 3-difluoro β-lactam compounds containing different para-substituent ring B 36–39; 3-difluoro β-lactam compounds containing different meta-substituent ring B 40, 42–45 in MCF-7 breast cancer cells. Cell proliferation of MCF-7 cells was determined with an AlamarBlue assay (seeding density […] for 96-well plates). Compound concentrations of either 10 μM or 1 μM for 72 h were used to treat the cells with control wells containing vehicle ethanol (1% v/v) and CA-4 (10 μM and 1 μM). The mean value for three experiments is shown with the ± S.E.M. for three independent experiments.

SW-480 cells = test: AlamarBlue cell viability assay; format: cell-based; details: SW-480, 10 μM, 72 h
Description: Compound # (Treatment Concentration µM) […]
different para-substituent ring B 26-29; 3-fluoro β-lactam compounds containing different meta-substituent ring B 30, 33-35; (B) 3,3-difluoro β-lactam compounds containing different para-substituent ring B 36-39; 3,3-difluoro β-lactam compounds containing different meta-substituent […]
ring B 40, 42-45 in SW-480 cancer cells.
Cell proliferation of MCF-7 cells was determined with an alamarBlue assay (seeding density […]
Compound concentrations of either 10 μM or 1 μM for 72 h were used to treat the cells with control wells containing vehicle ethanol (1%

[2] = Stability under degradation conditions (HPLC); format: physicochemical
Description: (§1) The β-lactam ring is known to undergo hydrolysis/degradation depending on the substituent type on the ring. For example, degradation of monocyclic β-lactam antibiotic aztreonam increased with elevated humidity, temperature and acidic pH buffer. Ezetimibe, a monocyclic β-lactam drug used to reduce blood cholesterol, undergoes degradation and hydrolysis more rapidly in neutral and basic pH conditions than in acidic pH [71]. The stability of representative compounds 33 and 39 was also determined at pH 4, pH 7.4 (plasma) and pH 9 (intestine) by HPLC. […] The electron-withdrawing effect of the 3-fluoro substituent may result in decreasing stability of the β-lactam ring in response to acid hydrolysis.
(§2) The stability study for compounds 33 and 39 was performed using analytical HPLC (Symmetry column (C18, […], 4.6 × 150 mm), dual wavelength absorbance detector (Waters 2487), binary HPLC pump (Waters 1525) and autosampler (Waters 717 plus)) with mobile phase acetonitrile (70%)/water (30%), flow rate 1 mL/min over 15 min and detection at λ 254 nm. Stock solutions of compounds 33 and 39 (1 mg/mL in mobile phase) were used. Dilutions of 0.5 mg/mL, 0.25 mg/mL, 0.125 mg/mL, 0.0625 mg/mL, 0.03125 mg/mL, 0.015625 mg/mL and 0.0078 mg/mL were prepared for the calibration curve. (i) Stability of 33 and 39 in phosphate buffers: The phosphate buffers were prepared in accordance with the British Pharmacopoeia 2020 at pH values 4, 7.4 and 9. Stock solution, 300 µL (1 mg/mL ACN), was added to a vial containing buffer (9.7 mL), mixed and pre-heated to 37 °C. 1 mL of the solution was introduced into an HPLC vial. Samples (10 µL) were injected and analysed at time intervals of t = 0 min, 5 min, 30 min, 60 min and hourly for 24 h. The analysis was performed in triplicate. (ii) Thermal stability: Compounds 33 and 39 (1 mL stock solution) were each placed in a vial for 4 h at 60 °C on a heating block. The sample was then cooled, diluted with acetonitrile and analysed by HPLC. (iii) Photostability study: Compounds 33 and 39 (stock solution, 1 mL) were placed in a vial, exposed to UV light for 4 h and then analysed by HPLC. (iv) Stability in acidic conditions: HCl (0.1 M, 0.2 mL) was added to stock solutions (0.8 mL) of 33 and 39 in a vial. The vial was vortexed and retained at room temperature. A sample was neutralised with NaOH (0.1 M, 0.2 mL) each hour for 4 h and then analysed by HPLC. (v) Stability of 33 and 39 in basic (alkaline) conditions: NaOH (0.1 M, 0.2 mL) was added to stock solution (0.8 mL) in a vial. The vial was vortexed and retained at room temperature. A sample was neutralised with HCl (0.1 M, 0.2 mL) every hour for 4 h then analysed by HPLC. (vi) Stability of 33 and 39 in oxidising conditions: H2O2 (3%, 0.2 mL) was added to the stock solution (0.8 mL). The vial was vortexed to obtain a homogeneous mixture and retained at room temperature, and a sample was analysed by HPLC every hour for 4 h.

[3] = Stability in phosphate buffers (HPLC); format: physicochemical
Description: as §1, §2

[4] = tested on: purified bovine brain tubulin; test: Tubulin polymerisation assay (turbidimetric, 340 nm); format: biochemical; details: paclitaxel 10 µM; 33 10 and 30 µM
Description: Tubulin polymerisation was investigated using a turbidimetric assay which determines the light scattering by microtubules (absorbance at 340 nm) that is proportional to the microtubule polymer concentration.
Tubulin polymerisation was monitored with purified bovine tubulin using the BK006 kit supplied by Cytoskeleton Inc. (Denver, CO, USA), carried out following the manufacturer’s instructions with the standard assay conditions. Purified (>99%) bovine brain tubulin (3 mg/mL) in a buffer containing PIPES (80 mM, pH 6.9), EGTA (0.5 mM), MgCl2 (2 mM), GTP (1 mM) and glycerol (10%) was incubated at 37 °C in the presence of either vehicle (2% (v/v) ddH2O) or paclitaxel (10 µM), CA-4 (10 μM) or 33 (10 and 30 µM). The effect on tubulin assembly was monitored turbidimetrically at 340 nm in a Spectramax 340 PC spectrophotometer (Molecular Devices, Sunnyvale, CA, USA), with the light scattered depending on the concentration of polymerised microtubules formed. The absorbance was measured at 30 s intervals for 60 min.
Figure 7 Effect of β-lactam compound 33 (10 and 30 µM) and paclitaxel (10 µM) on in vitro tubulin polymerisation. Purified bovine tubulin and GTP were mixed in a 96-well plate. Compounds were added and the reaction was started by warming the solution from 4 to 37 °C. Ethanol (1% v/v) was used as a vehicle control. The effect on tubulin assembly was monitored in a Spectramax 340PC spectrophotometer at 340 nm at 30 s intervals for 30 min at 37 °C. […] Each experiment was performed in duplicate.

MCF-7 cells = test: Immunofluorescence confocal microscopy of the microtubule network; format: cell-based, human; details: MCF-7, 16 h; 33 0.1, 0.5 and 1.0 μM; paclitaxel 1.0 μM; CA-4 0.01 μM
Description: The tubulin-targeting effect of compound 33 on the microtubule network of MCF-7 cells was further evaluated by immunofluorescence studies to identify the cellular effects that are relevant to its mechanism of action by inhibiting the polymerisation of tubulin. […] Treatment of MCF-7 cells with compound 33 (0.1, 0.5 and 1.0 μM) induced cell rounding and distinct abnormalities of the spindle formation as well as a loss of the structured tubulin that impacts the microtubule network structure in a dose-dependent manner.
Confocal microscopy was used to determine the effects of novel compound 33 and standard drugs on the MCF-7 cytoskeleton according to the protocols we previously described. For the immunofluorescence study, MCF-7 cells were seeded at 1 × 10^5 cells/mL using eight chamber glass slides (BD Biosciences). The cells were treated with vehicle control (1% ethanol (v/v)), CA-4 (0.01 μM), paclitaxel (1 µM) and 33 (0.1 µM, 0.5 µM and 1 µM) for 16 h. The cells were gently washed in PBS, fixed with 4% paraformaldehyde in PBS (20 min) and permeabilised in 0.5% Triton X-100. After further washes in PBS (containing 0.1% Tween (PBST)), cells were blocked with 5% bovine serum albumin which was diluted with PBST. Cells were incubated with mouse monoclonal anti-α-tubulin–FITC antibody (clone DM1A) (Sigma) (1:100) at 20 °C for 2 h and then washed in PBST and incubated with Alexa Fluor 488 dye (1:500) for 1 h at 20 °C. Cells were washed in PBST and mounted in Ultra Cruz Mounting Media (Santa Cruz Biotechnology, Santa Cruz, CA, USA) containing 4,6-diamino-2-phenolindol dihydrochloride (DAPI). The images were captured by Leica SP8 confocal microscopy with Leica Application Suite X software. Experiments were performed on three independent occasions and images were collected on the same day using identical parameters.
Figure 8 Compound 33 acts as depolymeriser of the microtubule network of MCF-7 breast cancer cells. Cells were treated with vehicle control ([…]), CA-4 (0.01 μM), paclitaxel (1 μM) or compound 33 (0.1, 0.5 and 1 μM) for 16 h. […]

IC50 [1]: 0.312 µM
Compound: COc1ccc(C2C(F)C(=O)N2c2cc(OC)c(OC)c(OC)c2)cc1 (stereo not shown) [Compound 26, 3-Fluoro-4-(4-methoxyphenyl)-1-(3,4,5-trimethoxyphenyl)azetidin-2-one]
viability at 1 µM ([1]; 72 h): > 70% | viability at 10 µM ([1]; 72 h): 40% | cells remaining (SW-480 cells): 58%

Compound: CCOc1ccc(C2C(F)C(=O)N2c2cc(OC)c(OC)c(OC)c2)cc1 (stereo not shown) [Compound 27, 4-(4-Ethoxyphenyl)-3-fluoro-1-(3,4,5-trimethoxyphenyl)azetidin-2-one]
viability at 1 µM ([1]; 72 h): > 70% | viability at 10 µM ([1]; 72 h): 46%

Compound: COc1cc(N2C(=O)C(F)C2c2ccc(SC)cc2)cc(OC)c1OC (stereo not shown) [Compound 28, 3-Fluoro-4-(4-(methylthio)phenyl)-1-(3,4,5-trimethoxyphenyl)azetidin-2-one]
viability at 1 µM ([1]; 72 h): > 70% | viability at 10 µM ([1]; 72 h): 47%

Compound: CCSc1ccc(C2C(F)C(=O)N2c2cc(OC)c(OC)c(OC)c2)cc1 (stereo not shown) [Compound 29, 4-(4-(Ethylthio)phenyl)-3-fluoro-1-(3,4,5-trimethoxyphenyl)azetidin-2-one]
cell viability ([1]; MCF-7, range over the two concentrations 1 and 10 μM, 72 h): 68–90% | cells remaining (SW-480 cells): 60%

remaining at 4 h, 0.8 mg/mL ([2]; 0.1 M HCl added to stock solution, acidic (0.1 M HCl)): 54% | remaining at 4 h, 0.8 mg/mL ([2]; 0.1 M NaOH added to stock solution, alkaline (0.1M NaOH)): 60% | remaining at 4 h, 0.8 mg/mL ([2]; 3% H2O2 added to stock solution, oxidative (3% H2O2)): 50% | remaining at 4 h, 1 mg/mL ([2]; stock solution in acetonitrile/water under UV light, UV light): 61% | remaining at 4 h, 1 mg/mL ([2]; stock solution in acetonitrile/water, heated, heat (60 °C)): 82% | remaining at 24 h, 0.03 mg/mL ([3]; phosphate buffer pH 4, 37 °C): 39% | remaining at 24 h, 0.03 mg/mL ([3]; phosphate buffer pH 7.4, 37 °C): 50% | remaining at 24 h, 0.03 mg/mL ([3]; phosphate buffer pH 9, 37 °C): 19% | remaining at 0.03 mg/mL ([3]; phosphate buffer, pH 11 (as printed in Table S7)): 19%
Compound: CCSc1ccc(C2N(c3cc(OC)c(OC)c(OC)c3)C(=O)C2(F)F)cc1 (stereo not shown) [Compound 39, 4-(4-(Ethylthio)phenyl)-3,3-difluoro-1-(3,4,5-trimethoxyphenyl)azetidin-2-one]

IC50 [1]: 0.321 µM
Compound: COc1ccc(C2N(c3cc(OC)c(OC)c(OC)c3)C(=O)C2(F)F)cc1O (stereo not shown) [Compound 42, 3,3-Difluoro-4-(3-hydroxy-4-methoxyphenyl)-1-(3,4,5-trimethoxyphenyl)azetidin-2-one]
viability at 1 µM ([1]; 72 h): 17% | viability at 10 µM ([1]; 72 h): 37% | cells remaining (SW-480 cells): 56%

Compound: CC(=O)O[C@H]1C(=O)[C@@]2(C)[C@H]([C@H](OC(=O)c3ccccc3)[C@]3(O)C[C@H](OC(=O)[C@H](O)[C@@H](NC(=O)c4ccccc4)c4ccccc4)C(C)=C1C3(C)C)[C@]1(OC(C)=O)CO[C@@H]1C[C@@H]2O [Paclitaxel, reference compound]
effect on tubulin polymerisation [4]: stabilises the tubulin | effect on the microtubule network (MCF-7 cells): significant stabilisation of microtubules
